Legend:
clinical [1] = conditions: human, in vivo, iv, Vdss
clinical [2] = conditions: human, in vivo, iv
[3] = human, in vivo, iv
clinical [4] = conditions: human, in vivo, iv, CL
clinical [5] = conditions: human, in vivo, iv; remark: listed apart in the source
clinical [6] = conditions: human, in vivo, iv, t1/2
[7] = human, in vivo, iv; remark: listed apart in the source
[8] = human, in vivo, iv; remark: listed apart in the source
[9] = human, in vivo, iv; remark: listed apart in the source
[10] = human, in vivo, iv; remark: listed apart in the source

Row | Compound | Vd (clinical [1]) [L/kg] | MRT (clinical [2]) [h] | t1/2 [3] [h] | clearance (clinical [4]) [mL/min/kg] | fraction unbound (clinical [5]) | half-life (clinical [6]) [h] | Vdss [7] [L/kg] | MRT [8] [h] | CL [9] [mL/min/kg] | fu [10]
1 | N=C(N)c1ccc(OCCCCCOc2ccc(C(=N)N)cc2)cc1 [PENTAMIDINE] | 53 | 12 | 25 | 74 |  |  |  |  |  | 
2 | COc1cc(NC(C)CCCN)c2ncccc2c1 (stereo not given) [PRIMAQUINE] | 4 | 11 | 7.1 | 5.8 |  |  |  |  |  | 
3 | CCOC(=O)C1(c2ccccc2)CCC=CC1N(C)C (stereo not given) [TILIDINE] | 4 | 4.2 |  | 16 | 0.21 | 5 |  |  |  | 
4 | CCCCS(=O)(=O)N[C@@H](Cc1ccc(OCCCCC2CCNCC2)cc1)C(=O)O [TIROFIBAN] |  |  |  |  | 0.36 | 1.6 | 0.99 | 1.8 |  | 
5 | NC[C@H]1O[C@H](O[C@H]2[C@H](O)[C@@H](O[C@H]3O[C@H](CO)[C@@H](O)[C@H](N)[C@H]3O)[C@H](N)C[C@@H]2N)[C@H](N)C[C@@H]1O [TOBRAMYCIN] | 0.23 | 2.4 |  | 1.6 | 1 | 2 |  |  |  | 
6 | Cc1ccccc1OCC(O)CNCCOc1ccc(C(N)=O)cc1 (stereo not given) [TOLAMOLOL] | 4 | 4.8 |  | 14 | 0.089 | 2.5 |  |  |  | 
7 | Cc1ccc(C(=O)c2cc(O)c(O)c([N+](=O)[O-])c2)cc1 [TOLCAPONE] | 0.12 | 1.1 |  | 1.9 | 0.0012 | 1.1 |  |  |  | 
8 | Cc1cccc(N2CC(CO)OC2=O)c1 (stereo not given) [TOLOXATONE] | 1.5 | 2.3 |  | 11 | 0.49 | 1.6 |  |  |  | 
9 | C[C@@H](O)[C@H]1C(=O)N2C(C(=O)O)=C(S[C@H]3C[C@@H](C(=O)N4CC[C@H](NC(=O)CNC(=N)N)C4)N(C)C3)[C@H](C)[C@H]12 [TOMOPENEM] | 0.23 | 2 |  | 1.9 | 0.91 | 1.7 |  |  |  | 
10 | C[C@@H]([C@@H](O)c1ccc(O)cc1)N1CCC(O)(c2ccccc2)CC1 [TRAXOPRODIL] | 4.4 | 2.6 |  | 27 | 0.63 | 3.7 |  |  |  | 
11 | CC1(C)O[C@@H]2C[C@H]3[C@@H]4CCC5=CC(=O)C=C[C@]5(C)[C@@]4(F)[C@@H](O)C[C@]3(C)[C@]2(C(=O)CO)O1 [TRIAMCINOLONE ACETONIDE] | 1.4 | 2.5 |  | 9.4 | 0.2 | 2.4 |  |  |  | 
12 | COc1cc(NCc2ccc3nc(N)nc(N)c3c2C)cc(OC)c1OC [TRIMETREXATE] | 0.77 | 17 |  | 0.77 | 0.05 | 17 |  |  |  | 
13 | CC(CN(C)C)CN1c2ccccc2CCc2ccccc21 (stereo not given) [TRIMIPRAMINE] | 16 | 17 |  | 16 | 0.051 | 23 |  |  |  | 
14 | C/C=C/C[C@@H](C)C(=O)[C@H]1C(=O)N[C@@H](C(C)C)C(=O)N(C)CC(=O)N(C)[C@@H](CC(C)C)C(=O)N[C@@H](C(C)C)C(=O)N(C)[C@@H](CC(C)C)C(=O)N[C@@H](C)C(=O)N[C@H](C)C(=O)N(C)[C@@H](CC(C)C)C(=O)N(C)[C@@H](CC(C)C)C(=O)N(C)[C@@H](C(C)C)C(=O)N1C [VALSPODAR] | 1.8 | 12 |  | 2.6 | 0.022 | 10 |  |  |  | 
15 | CC(=O)O[C@H]1C[C@@H]2CC[C@@H]3[C@H](CC[C@@]4(C)[C@H]3C[C@H]([N+]3(C)CCCCC3)[C@@H]4OC(C)=O)[C@@]2(C)C[C@@H]1N1CCCCC1.[Br-] [VECURONIUM BROMIDE] | 0.3 | 1.1 |  | 4.5 | 0.25 | 1.4 |  |  |  | 
16 | O.O=P(O)(O)C(O)(Cn1ccnc1)P(=O)(O)O [ZOLEDRONIC ACID] | 0.6 | 4.5 |  | 2.2 | 0.78 | 11 |  |  |  | 
17 | CARBOPLATIN |  |  | 2 |  |  |  | 0.26 | 3 | 1.5 | 1
18 | GADOVERSETAMIDE |  |  | 1.7 |  |  |  | 0.16 | 2.2 | 1.2 | 1
19 | GENTAMICIN |  |  | 4.7 |  |  |  |  | 5.5 |  | 1
